The structures appear in SMILES notation. A value given as a limit tells only on which side of the number the result lay.

The target in one experiment is T1, IKBKB (IKKβ) (Homo sapiens, UniProt O14920).
T1 construct: purchased Invitrogen (Paisley, UK)
T1 sequence (O14920 1-756): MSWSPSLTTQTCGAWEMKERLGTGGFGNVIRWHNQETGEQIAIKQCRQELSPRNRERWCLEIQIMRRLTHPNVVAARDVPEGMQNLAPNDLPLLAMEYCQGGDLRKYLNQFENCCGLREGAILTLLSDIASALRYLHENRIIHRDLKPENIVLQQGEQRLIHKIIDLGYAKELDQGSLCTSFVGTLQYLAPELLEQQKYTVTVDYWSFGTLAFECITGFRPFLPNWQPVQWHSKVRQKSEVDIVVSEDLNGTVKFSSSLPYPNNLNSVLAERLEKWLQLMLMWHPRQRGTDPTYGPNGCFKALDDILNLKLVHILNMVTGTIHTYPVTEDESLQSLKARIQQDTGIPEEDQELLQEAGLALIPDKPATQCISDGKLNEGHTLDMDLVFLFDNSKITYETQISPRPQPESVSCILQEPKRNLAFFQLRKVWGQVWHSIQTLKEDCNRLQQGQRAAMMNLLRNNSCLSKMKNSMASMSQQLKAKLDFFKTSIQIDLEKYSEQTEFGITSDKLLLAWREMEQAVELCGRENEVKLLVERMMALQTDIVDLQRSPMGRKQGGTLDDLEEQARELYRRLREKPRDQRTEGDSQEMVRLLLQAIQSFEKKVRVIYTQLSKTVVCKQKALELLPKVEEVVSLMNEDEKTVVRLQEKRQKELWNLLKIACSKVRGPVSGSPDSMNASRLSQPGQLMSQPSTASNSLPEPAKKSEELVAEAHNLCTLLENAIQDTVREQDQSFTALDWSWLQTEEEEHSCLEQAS
Nature of the experiment: IKKβ enzyme assay (Z'-LYTE, Invitrogen). The experiment is classed as biochemical. As to conditions: ATP at or close to Km; read-out: Inhibitor activity versus IKKβ. On the procedure: The ability of compounds to inhibit IKKβ kinase activity was measured in an assay performed by Invitrogen (Paisley, UK). The Z′-LYTE™ biochemical assay employs a fluorescence-based, coupled-enzyme format and is based on the differential sensitivity of phosphorylated and non-phosphorylated peptides to proteolytic cleavage. The peptide substrate is labelled with two fluorophores—one at each end—that make up a FRET pair. In the primary reaction, the kinase transfers the gamma-phosphate of ATP to a single serine or threonine residue in a synthetic FRET-peptide. In the secondary reaction, a site-specific protease recognizes and cleaves non-phosphorylated FRET-peptides. Phosphorylation of FRET-peptides suppresses cleavage by the Development Reagent. Cleavage disrupts FRET between the donor (i.e., coumarin) and acceptor (i.e. fluorescein) fluorophores on the FRET-peptide, whereas uncleaved, phosphorylated FRET-peptides maintain FRET. A […] method, which calculates the ratio (the Emission Ratio) of donor emission to acceptor emission after excitation of the donor fluorophore at 400 nm, is used to quantitate reaction progress.
The final 10 μL Kinase Reaction consists of 0.9-8.0 ng IKBKB (IKKβ), 2 μM Ser/Thr 05 Peptide and ATP in 50 mM HEPES pH 7.5, 0.01% BRIJ-35, 10 mM MgCl2, 1 mM EGTA. The assay is performed at an ATP concentration at, or close to the Km. After the 60 minute Kinase Reaction incubation at room temperature, 5 μL of a 1:128 dilution of Development Reagent is added. The assay plate is incubated for a further 60 minutes at room temperature and read on a fluorescence plate reader.
Duplicate data points are generated from a ⅓ log dilution series of a stock solution of test compound in DMSO. Nine dilutions steps are made from a top concentration of 10 μM, and a ‘no compound’ blank is included. Data is collected and analysed using XLfit software from IDBS. The dose response curve is curve fitted to model number 205 (sigmoidal dose-response model). From the curve generated, the concentration giving 50% inhibition is determined and reported.
For the compound `NC(=O)Nc1cc(-c2ccc(C[C@H](N)C(=O)O)cc2)sc1C(N)=O` [Example 47, 4-[5-carbamoyl-4-(carbamoylamino)2-thienyl]-L-phenylalanine], the IC50 is less than 1 µM. Still for that read-out and setting: next, `NC(=O)Nc1sc(-c2ccc(/C=C/C[C@@H](NC3CCCCC3)C(=O)OC3CCCC3)cc2)cc1C(N)=O` [Example 20, Cyclopentyl (2R,4E)-5-{4-[4-carbamoyl-5-(carbamoylamino)thiophen-2-yl]phenyl}-2-(cyclohexylamino)pent-4-enoate]: less than 1 µM; `NC(=O)Nc1sc(-c2ccc(/C=C/C[C@@H](N)C(=O)O)cc2)cc1C(N)=O` [Example 34, (2R,4E)-2-amino-5-{4-[4-carbamoyl-5-(carbamoylamino)-2-thienyl]phenyl}pent-4-enoic acid]: less than 1 µM.

Take `NC(=O)Nc1sc(-c2ccc(OCC[C@H](N)C(=O)O)cc2Cl)cc1C(N)=O` [Example 31, O-{4-[4-carbamoyl-5-(carbamoylamino)-2-thienyl]-3-chlorophenyl}-L-homoserine]: the IC50 is less than 1 µM. On the same count and under the same terms, the figure for `NC(=O)Nc1sc(-c2ccc(CCC[C@H](N)C(=O)O)cc2)cc1C(N)=O` [Example 35, 5-{4-[4-carbamoyl-5-(carbamoylamino)-2-thienyl]phenyl}-L-norvaline] is less than 1 µM. On the same count and under the same terms, the figure for `NC(=O)Nc1sc(-c2ccc(OCCC[C@H](N)C(=O)O)cc2)cc1C(N)=O` [Example 27, 5-{4-[4-carbamoyl-5-(carbamoylamino)-2-thienyl]phenoxy}-L-norvaline] is less than 1 µM. Same read-out and setting: next, `Cc1cc(OCC[C@H](N)C(=O)O)ccc1-c1cc(C(N)=O)c(NC(N)=O)s1` [Example 29, O-{4-[4-carbamoyl-5-(carbamoylamino)-2-thienyl]-3-methylphenyl}-L-homoserine]: less than 1 µM; `NC(=O)Nc1sc(-c2ccc(/C=C\C[C@H](N)C(=O)O)cc2)cc1C(N)=O` [Example 42, (2S,4Z)-2-amino-5-{4-[4-carbamoyl-5-(carbamoylamino)-2-thienyl]phenyl}pent-4-enoic acid]: less than 1 µM. Consider `NC(=O)Nc1sc(-c2ccc(C#CC[C@H](N)C(=O)O)cc2)cc1C(N)=O` [Example 39, (2S)-2-amino-5-{4-[4-carbamoyl-5-(carbamoylamino)-2-thienyl]phenyl}pent-4-ynoic acid], for which the IC50 is less than 1 µM. On to `NC(=O)Nc1cc(-c2ccc(OCC[C@H](N)C(=O)OC3CCCC3)cc2)sc1C(N)=O` [Example 23, Cyclopentyl O-{4-[5-carbamoyl-4-(carbamoylamino)-2-thienyl]phenyl}-L-homoserinate], for which the IC50 is less than 1 µM. Turning to `NC(=O)Nc1cc(-c2ccc(C[C@H](N)C(=O)OC3CCCC3)cc2)sc1C(N)=O` [Example 24, Cyclopentyl 4-[5-carbamoyl-4-(carbamoylamino)-2-thienyl]-L-phenylalaninate], the IC50 was less than 1 µM.

With `NC(=O)Nc1sc(-c2ccc(OCCC[C@@H](N)C(=O)O)cc2)cc1C(N)=O` [Example 28, 5-{4-[4-carbamoyl-5-(carbamoylamino)-2-thienyl]phenoxy}-D-norvaline], the IC50 was less than 1 µM.

`NC(=O)Nc1sc(-c2ccc(CCC[C@@H](N)C(=O)OC3CCCC3)cc2)cc1C(N)=O` [Example 12, Cyclopentyl 5-{4-[4-carbamoyl-5-(carbamoylamino)-2-thienyl]phenyl}-D-norvalinate]: the IC50 is less than 1 µM. Consider `NC(=O)Nc1sc(-c2ccc(COCC[C@H](N)C(=O)O)cc2)cc1C(N)=O` [Example 41, O-{4-[4-carbamoyl-5-(carbamoylamino)-2-thienyl]benzyl}-L-homoserine], for which the IC50 was less than 1 µM. Still for that read-out and setting: next, `NC(=O)Nc1sc(-c2ccc(C[C@H](N)C(=O)O)cc2)cc1C(N)=O` [Example 40, 4-[4-carbamoyl-5-(carbamoylamino)-2-thienyl]-L-phenylalanine]: less than 1 µM.

Consider `NC(=O)Nc1sc(-c2ccc(OCC[C@@H](N)C(=O)O)cc2)cc1C(N)=O` [Example 25, O-{4-[4-Carbamoyl-5-(carbamoylamino)-2-thienyl]phenyl}-D-homoserine], for which the IC50 is less than 1 µM.

On to `NC(=O)Nc1cc(-c2ccc(OCC[C@H](N)C(=O)O)cc2)sc1C(N)=O` [Example 46, O-{4-[5-carbamoyl-4-(carbamoylamino)-2-thienyl]phenyl}-L-homoserine], for which the IC50 was less than 1 µM. Still for that read-out and setting: next, `NC(=O)Nc1sc(-c2ccc(/C=C/C[C@H](N)C(=O)O)cc2)cc1C(N)=O` [Example 33, (2S,4E)-2-amino-5-{4-[4-carbamoyl-5-(carbamoylamino)-2-thienyl]phenyl}pent-4-enoic acid]: less than 1 µM; `NC(=O)Nc1sc(-c2ccc(/C=C/C[C@H](N)C(=O)O)cc2Cl)cc1C(N)=O` [Example 37, (2S,4E)-2-amino-5-{4-[4-carbamoyl-5-(carbamoylamino)-2-thienyl]-3-chlorophenyl}pent-4-enoic acid]: less than 1 µM. On the same count and under the same terms, next, `NC(=O)Nc1sc(-c2ccc(N(CC[C@H](N)C(=O)O)Cc3ccccc3)cc2)cc1C(N)=O` [Example 45, (2S)-2-amino-4-(benzyl{4-[4-carbamoyl-5-(carbamoylamino)thiophen-2-yl]phenyl}amino)butanoic acid]: less than 1 µM. On the same count and under the same terms, next, `Cc1cc(-c2cc(C(N)=O)c(NC(N)=O)s2)ccc1OCC[C@H](N)C(=O)O` [Example 30, O-{4-[4-carbamoyl-5-(carbamoylamino)-2-thienyl]-2-methylphenyl}-L-homoserine]: less than 1 µM; `NC(=O)Nc1sc(-c2ccc(OCC[C@H](N)C(=O)O)c(Cl)c2)cc1C(N)=O` [Example 32, O-{4-[4-carbamoyl-5-(carbamoylamino)-2-thienyl]-2-chlorophenyl}-L-homoserine]: less than 1 µM.

Turning to `NC(=O)Nc1sc(-c2ccc(CCC[C@@H](N)C(=O)O)cc2)cc1C(N)=O` [Example 36, 5-{4-[4-carbamoyl-5-(carbamoylamino)-2-thienyl]phenyl}-D-norvaline], the IC50 was less than 1 µM. As to `Cc1cc(-c2cc(C(N)=O)c(NC(N)=O)s2)ccc1/C=C/C[C@H](N)C(=O)O` [Example 38, (2S,4E)-2-amino-5-{4-[4-carbamoyl-5-(carbamoylamino)-2-thienyl]-2-methylphenyl}pent-4-enoic acid], the IC50 was less than 1 µM. In the case of `NC(=O)Nc1sc(-c2ccc(/C=C/C[C@@H](NC3CCCCC3)C(=O)O)cc2)cc1C(N)=O` [Example 44, (2R,4E)-5-{4-[4-carbamoyl-5-(carbamoylamino)thiophen-2-yl]phenyl}-2-(cyclohexylamino)pent-4-enoic acid], the IC50 was less than 1 µM.

Take `NC(=O)Nc1sc(-c2ccc(OCC[C@H](NC3CCCCC3)C(=O)O)cc2)cc1C(N)=O` [Example 43, O-{4-[4-carbamoyl-5-(carbamoylamino)thiophen-2-yl]phenyl}-N-cyclohexyl-L-homoserine]: the IC50 was less than 1 µM.

The next experiment relates to THP-1 cells. Nature of the experiment: LPS-stimulation of THP-1 cells, TNF-α release. The experiment is classed as cell-based. As to conditions: Homo sapiens, LPS 1 μg/ml, 6 hrs, inhibitor added 2 hrs before, read-out: Inhibitor activity versus THP-1 TNFα release. On the procedure: LPS-Stimulation of THP-1 Cells
THP-1 cells were plated in 100 μl at a density of 4×10^4 cells/well in V-bottomed 96 well tissue culture treated plates and incubated at 37° C. in 5% CO2 for 16 hrs. 2 hrs after the addition of the inhibitor in 100 μl of tissue culture media, the cells were stimulated with LPS (E coli strain 005:B5, Sigma) at a final concentration of 1 μg/ml and incubated at 37° C. in 5% CO2 for 6 hrs. TNF-α levels were measured from cell-free supernatants by sandwich ELISA (R&D Systems #QTA00B)
For `NC(=O)Nc1sc(-c2ccc(/C=C/C[C@@H](NC3CCCCC3)C(=O)OC3CCCC3)cc2)cc1C(N)=O` [Example 20, Cyclopentyl (2R,4E)-5-{4-[4-carbamoyl-5-(carbamoylamino)thiophen-2-yl]phenyl}-2-(cyclohexylamino)pent-4-enoate], the IC50 was in the range of 1 to 5 µM.

Regarding `NC(=O)Nc1cc(-c2ccc(OCC[C@H](N)C(=O)OC3CCCC3)cc2)sc1C(N)=O` [Example 23, Cyclopentyl O-{4-[5-carbamoyl-4-(carbamoylamino)-2-thienyl]phenyl}-L-homoserinate], the IC50 lay in the range of 1 to 5 µM. Still for that read-out and setting: the figure for `NC(=O)Nc1cc(-c2ccc(C[C@H](N)C(=O)OC3CCCC3)cc2)sc1C(N)=O` [Example 24, Cyclopentyl 4-[5-carbamoyl-4-(carbamoylamino)-2-thienyl]-L-phenylalaninate] is more than 5 µM; for `NC(=O)Nc1sc(-c2ccc(CCC[C@@H](N)C(=O)OC3CCCC3)cc2)cc1C(N)=O` [Example 12, Cyclopentyl 5-{4-[4-carbamoyl-5-(carbamoylamino)-2-thienyl]phenyl}-D-norvalinate] it is less than 1 µM.

The record behind these values is patent publication US8106091B2, “Inhibitors of IKK-beta serine-threonine protein kinase” (Chroma Therapeutics Ltd., priority 2006, dated 2012).
